According to patent publication US4632925A, “N-substituted diphenylpiperidines and antiobesity use thereof” (Hoffmann-La Roche Inc., priority 1985, dated 1986):

Experiments:
[1] = system: isolated perfused rat pancreas (insulin secretion); test: Insulin-secretory activity in the isolated perfused rat pancreas; set-up: species or system rat (female Charles River); settings: 50 μM; 16.7 mM glucose; index > 1 indicates suppression of insulin secretion
Protocol: DETERMINATION OF INSULIN-SECRETORY ACTIVITY IN THE ISOLATED PERFUSED RAT PANCREAS
Pancreases were obtained from young adult female Charles River rats weighing from 200-300 g. The animals were anesthesized with sodium pentobarbitol (45 mg/kg), injected intraperitoneally, and the pancreas with its intact vasculature was removed and connected to an extracorporeal perfusion apparatus.
The basic perfusion solution contained: 133 mM NaCl, 4.4 mM KCl, 2.5 mM MgSO4, 2.4 mM Ca gluconate, 1.5 mM KH2 PO4, 29.4 mM HaHCO3, 4% dextran and 0.2% bovine serum albumin and glucose as discussed below. The perfusion flow rate was kept constant at 4 ml/min. After a 15-20 minute equilibration period, the experimental protocol was begun. The pancreatic effluent was collected in either one or four-minute fractions.
The perfusion was run in the following sequence for each test compounds:
30 min 16.7 mM glucose--internal control
30 min 16.7 mM glucose and test compound
10 min 16.7 mM glucose--to check pancreas viability
The perfusion for the nontreated pancreas preparation was run as above, except that the test compound was omitted and replaced with perfusion solution.
Test compounds were dissolved in 90% ethanol or dimethylsulfoxide to a concentration of 25 mM and then diluted in the perfusion buffer to the desired concentration. The perfusion effluent was collected in one or four minute fractions--the samples were checked immediately, aliquoted for submission to radioimmunoassay and stored at -20° C. until the time of assay. The radioimmunoassay of insulin was carried out by a back-titration method using a pure rat insulin standard.
To assess the inhibitory activity of the test compounds, an inhibition index was calculated. The inhibition index is derived by comparing the insulin secretion response from treated versus nontreated pancreas preparations. For each preparation, a ratio of insulin secretion was calculated from the area under the insulin secretion curve of the first pulse of 16.7 mM glucose divided by the area under the curve of the second pulse of 16.7 mM glucose containing compound.

[2] = Glucose clearance: acute in vivo model; set-up: species or system Sprague-Dawley rats; settings: Rattus norvegicus, po, 0.5 h; 100 mg/kg intragastric, 30 min before i.p. glucose 1 g/kg; circulating glucose at 30 min; >100% indicates activity
Protocol: GLUCOSE CLEARANCE: ACUTE IN VIVO MODEL
The rationale for this test is that compounds which suppress insulin secretion should increase circulating glucose levels above those observed in controls following the administration of a high glucose load. Sprague-Dawley rats which range in weight from 150 to 180 grams after an overnight fast of 16 or 18 hours are given the test compound (100 mg/kg body weight) by intragastric administration 30 minutes before the intraperitoneal administration of glucose (1 g/kg body weight). Circulating glucose levels are determined immediately before glucose administration and 30, 60 and 90 minutes after glucose administration. Active compounds increase circulating glucose levels compared to controls. Since glucose levels peak at 30 minutes following glucose administration, the difference in circulating glucose levels between controls and treated rats at 30 minutes is used as an index of activity. The data are expressed as percent of control.

[3] = Antiobesity effects in obese Zucker rats; assay type: in vivo, genetically obese male Zucker rats; settings: for Circulating Insulin: last day of treatment
Protocol: ANTIOBESITY EFFECTS IN OBESE ZUCKER RATS
Genetically Obese Male Zucker rats were kept in temperature (22° C.) and light (12 hours light-dark cycle) regulated rooms. One week prior to the start of the experiment, the rats were transferred to individual wirebottomed cages and trained to eat a powdered chow diet (Ralston Purina Co., St. Louis, Mo.) ad libitum.
At the beginning of the experiment, the control group contributed to eat the chow diet and the experimental animals were given a chow diet containing drug. The amount of drug administered was calculated from the food intake per kg body weight for each experimental group. The age of the rats at the start of the drug treatment was two to three months. The period of treatment was 28 to 64 days. Food intake and body weights were recorded periodically (once each day to twice a week) throughout the duration of the study. Plasma samples for insulin and glucose determinations were taken from clipped tails. Carcass composition was determined at the end of the treatment period and, or comparative purposes, prior to the start of treatment.

[4] = Antiobesity effects in obese Zucker rats; assay type: in vivo, genetically obese male Zucker rats; settings: 14 days

## C(=C(c1ccccc1)c1ccccc1)C1CCN(CCCCCCCCc2cccnc2)CC1 [Example 25, 3-[8-[4-(2,2-diphenylethenyl)-1-piperidinyl]octyl]pyridine]
[1]
  Perfused Pancreas Inhibition Index: 38
[2]
  response vs control in vivo at 100 mg/kg: 127%
[3]; 9 mg/kg, 28 days
  Body Weight Gain (treated minus control): +9 g
  Food Intake: 91 % of control
  Circulating Insulin: 83 % of control
[3]; 17 mg/kg, 28 days
  Body Weight Gain (treated minus control): -16 g
  Food Intake: 89 % of control
  Circulating Insulin: 76 % of control
[3]; 24 mg/kg, 28 days, * p < 0.05
  Circulating Insulin: 47 % of control
  Body Weight Gain (treated minus control): -32 g
  Food Intake: 82 % of control
[3]; 28 mg/kg, 64 days, * p < 0.05
  Circulating Insulin: 47 % of control
  Body Weight Gain (treated minus control): -88 g
  Carcass Lipid Difference (treated minus control): -62 g
  Food Intake: 81 % of control
[3]; 34 mg/kg, 28 days, * p < 0.05
  Circulating Insulin: 33 % of control
  Body Weight Gain (treated minus control): -55 g
  Food Intake: 83 % of control
[3]; 38 mg/kg, 14 days, gain / days / dose (g/kg)
  Relative Body Weight Gain Index: 92
[3]; 38 mg/kg, 14 days, marked *
  Food Intake: 73 % of control
[3]; 28 days of treatment, in words
  Food Intake: dose dependent decrease
  body weight: dose dependent decrease in body weight
  insulin levels: dose dependent decrease
[3]; 64 days, in words
  body weight: Reduced body weight
  carcass lipid: decreased carcass lipid
[3]; treatment of obese rats, in words
  Glucose levels: unaltered by treatment
[4]; 38 mg/kg, marked *
  Body Weight Gain (treated minus control): -49 g

## O=C(CCCCCCCCc1cccnc1)N1CCC(C=C(c2ccccc2)c2ccccc2)CC1 [Example 30, 4-(2,2-Diphenylethenyl)-1-[1-oxo-9-(3-pyridinyl)nonyl]piperidine]
[1]
  Perfused Pancreas Inhibition Index: 1.4
[2]
  response vs control in vivo at 100 mg/kg: 100%
[3]; 49 mg/kg, 14 days
  Body Weight Gain (treated minus control): -12 g
  Food Intake: 100 % of control
[4]; 49 mg/kg, gain / days / dose (g/kg)
  Relative Body Weight Gain Index: 17
